Results as given in patent publication US12077503B2, “Substituted cyclic amides and their use as herbicides” (FMC CORPORATION, priority 2015, dated 2024).

Key:
Assay type in all cases: in vivo
[1] = tested on: barnyardgrass (Echinochloa crus-galli); assay: Test G Pre-Emergence Protocol; settings: Echinochloa crus-galli, pre-emergence, 312 h, evaluated after 13 days
Summary of the method: (§1)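 Pots of seeds in standard soil were grown for one day in a glasshouse (24/16 °C day/night, 14 h light, 65% humidity), then sprayed with compound in acetone/water 50:50 with 0.5% Tween 20 at 15.625, 62.5 or 250 g/ha. Damage was scored after 13 days on a 0 (none) to 100 (total) scale.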

[2] = tested on: corn (Zea mays); assay: Test G Pre-Emergence Protocol; settings: Zea mays, pre-emergence, 312 h, evaluated after 13 days
Summary of the method: as §1

[3] = tested on: giant foxtail (Setaria faberi); assay: Test G Pre-Emergence Protocol; settings: Setaria faberi, pre-emergence, 312 h, evaluated after 13 days
Summary of the method: as §1

[4] = tested on: ivy-leaved morning glory (Ipomoea hederacea); assay: Test G Pre-Emergence Protocol; settings: Ipomoea, pre-emergence, 312 h, evaluated after 13 days
Summary of the method: as §1

[5] = tested on: redroot pigweed (Amaranthus retroflexus); assay: Test G Pre-Emergence Protocol; settings: Amaranthus retroflexus, pre-emergence, 312 h, evaluated after 13 days
Summary of the method: as §1

[6] = tested on: velvetleaf (Abutilon theophrasti); assay: Test G Pre-Emergence Protocol; settings: Abutilon theophrasti, pre-emergence, 312 h, evaluated after 13 days
Summary of the method: as §1

[7] = tested on: barnyardgrass (Echinochloa crus-galli); assay: Test G Post-Emergence Protocol; settings: Echinochloa crus-galli, post-emergence, 312 h
Summary of the method: (§2)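 Pot-grown seedlings, 8 days old, raised in a glasshouse at 24/16 °C day/night with 14 h light and 65% humidity, were sprayed post-emergence with test compound in acetone/water (50:50) plus 0.5% Tween 20 at 15.625, 62.5 or 250 g/ha. Damage was scored visually 13 days later on a 0–100 scale (100 = total damage).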

[8] = tested on: corn (Zea mays); assay: Test G Post-Emergence Protocol; settings: Zea mays, post-emergence, 312 h
Summary of the method: as §2

[9] = tested on: giant foxtail (Setaria faberi); assay: Test G Post-Emergence Protocol; settings: Setaria faberi, post-emergence, 312 h
Summary of the method: as §2

[10] = tested on: ivy-leaved morning glory (Ipomoea hederacea); assay: Test G Post-Emergence Protocol; settings: Ipomoea, post-emergence, 312 h
Summary of the method: as §2

[11] = tested on: redroot pigweed (Amaranthus retroflexus); assay: Test G Post-Emergence Protocol; settings: Amaranthus retroflexus, post-emergence, 312 h
Summary of the method: as §2

[12] = tested on: velvetleaf (Abutilon theophrasti); assay: Test G Post-Emergence Protocol; settings: Abutilon theophrasti, post-emergence, 312 h
Summary of the method: as §2

COc1c(Cl)ccc([C@H]2CN(C)C(=O)[C@@H]2C(=O)Nc2cccc(F)n2)c1F (racemic) [Compound 1477]
pest or weed control at 15.625 g/ha ([1]; 15.625 g ai/ha, read-out: Barnyard grass damage rating (100=total damage to plant; 0=no damage to plant)): 50% | pest or weed control at 62.5 g/ha ([1]; 62.5 g ai/ha, 100=total damage to plant, 0=no damage to plant, read-out: plant damage rating, Barnyardgrass): 60% | pest or weed control at 250 g/ha ([1]; 250 g ai/ha, read-out: Barnyardgrass damage rating (100=total damage to plant; 0=no damage to plant)): 80% | plant injury at 15.625 g/ha ([2]; 15.625 g ai/ha, read-out: Corn damage rating (100=total damage to plant; 0=no damage to plant)): 20% | plant injury at 62.5 g/ha ([2]; 62.5 g ai/ha, 100=total damage to plant, 0=no damage to plant, read-out: plant damage rating, Corn): 40% | plant injury at 250 g/ha ([2]; 250 g ai/ha, read-out: Corn damage rating (100=total damage to plant; 0=no damage to plant)): 50% | pest or weed control at 15.625 g/ha ([3]; 15.625 g ai/ha, read-out: Foxtail, Giant damage rating (100=total damage to plant; 0=no damage to plant)): 60% | pest or weed control at 62.5 g/ha ([3]; 62.5 g ai/ha, 100=total damage to plant, 0=no damage to plant, read-out: plant damage rating, Foxtail, Giant): 80% | pest or weed control at 250 g/ha ([3]; 250 g ai/ha, read-out: Foxtail, Giant damage rating (100=total damage to plant; 0=no damage to plant)): 90% | pest or weed control at 15.625 g/ha ([4]; 15.625 g ai/ha, read-out: Morning-glory, Ivy-leaved damage rating (100=total damage to plant; 0=no damage to plant)): 0% | pest or weed control at 62.5 g/ha ([4]; 62.5 g ai/ha, 100=total damage to plant, 0=no damage to plant, read-out: plant damage rating, Morningglory, Ivy-leaved): 0% | pest or weed control at 250 g/ha ([4]; 250 g ai/ha, read-out: Morningglory, Ivy-leaved damage rating (100=total damage to plant; 0=no damage to plant)): 0% | pest or weed control at 15.625 g/ha ([5]; 15.625 g ai/ha, read-out: Pigweed, Redroot damage rating (100=total damage to plant; 0=no damage to plant)): 0% | pest or weed control at 62.5 g/ha ([5]; 62.5 g ai/ha, 100=total damage to plant, 0=no damage to plant, read-out: plant damage rating, Pigweed, Redroot): 0% | pest or weed control at 250 g/ha ([5]; 250 g ai/ha, read-out: Pigweed, Redroot damage rating (100=total damage to plant; 0=no damage to plant)): 0% | pest or weed control at 15.625 g/ha ([6]; 15.625 g ai/ha, read-out: Velvetleaf damage rating (100=total damage to plant; 0=no damage to plant)): 0% | pest or weed control at 62.5 g/ha ([6]; 62.5 g ai/ha, 100=total damage to plant, 0=no damage to plant, read-out: plant damage rating, Velvetleaf): 0% | pest or weed control at 250 g/ha ([6]; 250 g ai/ha, read-out: Velvetleaf damage rating (100=total damage to plant; 0=no damage to plant)): 0% | pest or weed control at 15.625 g/ha ([7]; 15.625 g ai/ha, evaluated after 13 days (100=total damage to plant; 0=no damage to plant), read-out: Barnyardgrass damage rating): 50% | pest or weed control at 62.5 g/ha ([7]; 62.5 g ai/ha, evaluated after 13 days, read-out: Barnyardgrass damage rating (100=total damage to plant; 0=no damage to plant)): 60% | pest or weed control at 250 g/ha ([7]; 250 g ai/ha, evaluated after 13 days, read-out: damage to plant, Barnyardgrass (100=total damage to plant; 0=no damage to plant)): 60% | plant injury at 15.625 g/ha ([8]; 15.625 g ai/ha, evaluated after 13 days (100=total damage to plant; 0=no damage to plant), read-out: Corn damage rating): 30% | plant injury at 62.5 g/ha ([8]; 62.5 g ai/ha, evaluated after 13 days, read-out: Corn damage rating (100=total damage to plant; 0=no damage to plant)): 60% | plant injury at 250 g/ha ([8]; 250 g ai/ha, evaluated after 13 days, read-out: damage to plant, Corn (100=total damage to plant; 0=no damage to plant)): 50% | pest or weed control at 15.625 g/ha ([9]; 15.625 g ai/ha, evaluated after 13 days (100=total damage to plant; 0=no damage to plant), read-out: Foxtail, Giant damage rating): 50% | pest or weed control at 62.5 g/ha ([9]; 62.5 g ai/ha, evaluated after 13 days, read-out: Foxtail, Giant damage rating (100=total damage to plant; 0=no damage to plant)): 60% | pest or weed control at 250 g/ha ([9]; 250 g ai/ha, evaluated after 13 days, read-out: damage to plant, Foxtail, Giant (100=total damage to plant; 0=no damage to plant)): 70% | pest or weed control at 15.625 g/ha ([10]; 15.625 g ai/ha, evaluated after 13 days (100=total damage to plant; 0=no damage to plant), read-out: Morningglory, Ivy-leaved damage rating): 0% | pest or weed control at 62.5 g/ha ([10]; 62.5 g ai/ha, evaluated after 13 days, read-out: Morningglory, Ivy-leaved damage rating (100=total damage to plant; 0=no damage to plant)): 0% | pest or weed control at 250 g/ha ([10]; 250 g ai/ha, evaluated after 13 days, read-out: damage to plant, Morningglory, Ivy-leaved (100=total damage to plant; 0=no damage to plant)): 0% | pest or weed control at 15.625 g/ha ([11]; 15.625 g ai/ha, evaluated after 13 days (100=total damage to plant; 0=no damage to plant), read-out: Pigweed, Redroot damage rating): 0% | pest or weed control at 62.5 g/ha ([11]; 62.5 g ai/ha, evaluated after 13 days, read-out: Pigweed, Redroot damage rating (100=total damage to plant; 0=no damage to plant)): 0% | pest or weed control at 250 g/ha ([11]; 250 g ai/ha, evaluated after 13 days, read-out: damage to plant, Pigweed, Redroot (100=total damage to plant; 0=no damage to plant)): 30% | pest or weed control at 15.625 g/ha ([12]; 15.625 g ai/ha, evaluated after 13 days (100=total damage to plant; 0=no damage to plant), read-out: Velvetleaf damage rating): 0% | pest or weed control at 62.5 g/ha ([12]; 62.5 g ai/ha, evaluated after 13 days, read-out: Velvetleaf damage rating (100=total damage to plant; 0=no damage to plant)): 20% | pest or weed control at 250 g/ha ([12]; 250 g ai/ha, evaluated after 13 days, read-out: damage to plant, Velvetleaf (100=total damage to plant; 0=no damage to plant)): 20%
